# From the supplement of paper PMC10307832
# Key:
# Test in all cases: relative viability (nuclei count vs DMSO), 5 days (fraction); higher = more cells survive
# A549 = system: A549
# In short: (§1)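 Dosing by pin tool came one day after lung cancer cell lines were seeded in 1536-well plates, using either one drug or a fixed anchor-drug dose plus five library-drug doses (not always all listed) in √10 steps. After 5 days, nuclei were counted on 4× images. Relative viability is treated-well nuclei count divided by vehicle-well nuclei count, and values are medians of duplicate plates.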
# Calu-6 = system: Calu-6
# In short: as §1
# EBC-1 = system: EBC-1
# In short: as §1
# IA-LM = system: IA-LM
# In short: as §1
# NCI-H1299 = system: NCI-H1299
# In short: as §1
# NCI-H1648 = system: NCI-H1648
# In short: as §1
# NCI-H1703 = system: NCI-H1703
# In short: as §1
# NCI-H2023 = system: NCI-H2023
# In short: as §1
# NCI-H2170 = system: NCI-H2170
# In short: as §1
# NCI-H520 = system: NCI-H520
# In short: as §1
# NCI-H727 = system: NCI-H727
# In short: as §1
smiles,measurement,setting,value
Cc1csc(=NC2CCCCC2)n1/N=C/c1ccc(O)c(O)c1O [MIM1] + O=C(c1cc(Cc2n[nH]c(=O)c3ccccc23)ccc1F)N1CCN(C(=O)C2CC2)CC1 [Olaparib] (partner 8 µM),relative viability,A549; first compound 0.2 µM,0.277
same,relative viability,A549; first compound 0.6325 µM,0.282
same,relative viability,A549; first compound 2 µM,0.304
same,relative viability,A549; first compound 6.325 µM,0.181
same,relative viability,A549; first compound 20 µM,0.0693
same,relative viability,Calu-6; first compound 0.6325 µM,0.563
same,relative viability,Calu-6; first compound 2 µM,0.614
same,relative viability,Calu-6; first compound 6.325 µM,0.288
same,relative viability,Calu-6; first compound 20 µM,0.152
same,relative viability,EBC-1; first compound 0.2 µM,0.559
same,relative viability,EBC-1; first compound 0.6325 µM,0.742
same,relative viability,EBC-1; first compound 2 µM,0.673
same,relative viability,EBC-1; first compound 6.325 µM,0.422
same,relative viability,EBC-1; first compound 20 µM,0.338
same,relative viability,IA-LM; first compound 0.2 µM,0.947
same,relative viability,IA-LM; first compound 0.6325 µM,0.854
same,relative viability,IA-LM; first compound 2 µM,0.829
same,relative viability,IA-LM; first compound 6.325 µM,0.518
same,relative viability,IA-LM; first compound 20 µM,0.192
same,relative viability,NCI-H1299; first compound 0.2 µM,0.942
same,relative viability,NCI-H1299; first compound 0.6325 µM,0.954
same,relative viability,NCI-H1299; first compound 2 µM,1.03
same,relative viability,NCI-H1299; first compound 6.325 µM,0.928
same,relative viability,NCI-H1299; first compound 20 µM,0.728
same,relative viability,NCI-H1648; first compound 0.2 µM,1
same,relative viability,NCI-H1648; first compound 0.6325 µM,1.03
same,relative viability,NCI-H1648; first compound 2 µM,0.697
same,relative viability,NCI-H1648; first compound 6.325 µM,0.611
same,relative viability,NCI-H1648; first compound 20 µM,0.298
same,relative viability,NCI-H1703; first compound 0.2 µM,0.54
same,relative viability,NCI-H1703; first compound 0.6325 µM,0.738
same,relative viability,NCI-H1703; first compound 2 µM,0.509
same,relative viability,NCI-H1703; first compound 6.325 µM,0.369
same,relative viability,NCI-H1703; first compound 20 µM,0.0913
same,relative viability,NCI-H2023; first compound 0.2 µM,0.501
same,relative viability,NCI-H2023; first compound 0.6325 µM,0.496
same,relative viability,NCI-H2023; first compound 2 µM,0.43
same,relative viability,NCI-H2023; first compound 6.325 µM,0.255
same,relative viability,NCI-H2023; first compound 20 µM,0.0641
same,relative viability,NCI-H2170; first compound 0.2 µM,0.539
same,relative viability,NCI-H2170; first compound 0.6325 µM,0.533
same,relative viability,NCI-H2170; first compound 2 µM,0.528
same,relative viability,NCI-H2170; first compound 6.325 µM,0.269
same,relative viability,NCI-H2170; first compound 20 µM,0.141
same,relative viability,NCI-H520; first compound 0.2 µM,0.333
same,relative viability,NCI-H520; first compound 0.6325 µM,0.346
same,relative viability,NCI-H520; first compound 2 µM,0.349
same,relative viability,NCI-H520; first compound 6.325 µM,0.242
same,relative viability,NCI-H520; first compound 20 µM,0.209
same,relative viability,NCI-H727; first compound 0.2 µM,0.7
same,relative viability,NCI-H727; first compound 0.6325 µM,0.721
same,relative viability,NCI-H727; first compound 2 µM,0.526
same,relative viability,NCI-H727; first compound 6.325 µM,0.748
same,relative viability,NCI-H727; first compound 20 µM,0.523
CCNC(=O)c1noc(-c2cc(C(C)C)c(O)cc2O)c1-c1ccc(CN2CCOCC2)cc1 [Luminespib] + O=C(c1cc(Cc2n[nH]c(=O)c3ccccc23)ccc1F)N1CCN(C(=O)C2CC2)CC1 [Olaparib] (partner 8 µM),relative viability,A549; first compound 0.002 µM,0.282
same,relative viability,A549; first compound 0.006325 µM,0.174
same,relative viability,A549; first compound 0.02 µM,0.194
same,relative viability,A549; first compound 0.06325 µM,0.0387
same,relative viability,A549; first compound 0.2 µM,0.0323
same,relative viability,Calu-6; first compound 0.002 µM,0.652
same,relative viability,Calu-6; first compound 0.006325 µM,0.545
same,relative viability,Calu-6; first compound 0.02 µM,0.696
same,relative viability,Calu-6; first compound 0.06325 µM,0.111
same,relative viability,Calu-6; first compound 0.2 µM,0.098
same,relative viability,EBC-1; first compound 0.002 µM,0.794
same,relative viability,EBC-1; first compound 0.006325 µM,0.586
same,relative viability,EBC-1; first compound 0.02 µM,0.572
same,relative viability,EBC-1; first compound 0.06325 µM,0.122
same,relative viability,EBC-1; first compound 0.2 µM,0.124
same,relative viability,IA-LM; first compound 0.002 µM,0.919
same,relative viability,IA-LM; first compound 0.006325 µM,0.785
same,relative viability,IA-LM; first compound 0.02 µM,0.816
same,relative viability,IA-LM; first compound 0.06325 µM,0.0533
same,relative viability,IA-LM; first compound 0.2 µM,0.0667
same,relative viability,NCI-H1299; first compound 0.002 µM,0.954
same,relative viability,NCI-H1299; first compound 0.006325 µM,0.921
same,relative viability,NCI-H1299; first compound 0.02 µM,0.959
same,relative viability,NCI-H1299; first compound 0.06325 µM,0.467
same,relative viability,NCI-H1299; first compound 0.2 µM,0.147
same,relative viability,NCI-H1648; first compound 0.002 µM,0.765
same,relative viability,NCI-H1648; first compound 0.006325 µM,0.653
same,relative viability,NCI-H1648; first compound 0.02 µM,0.784
same,relative viability,NCI-H1648; first compound 0.06325 µM,0.505
same,relative viability,NCI-H1648; first compound 0.2 µM,0.484
same,relative viability,NCI-H1703; first compound 0.002 µM,0.401
same,relative viability,NCI-H1703; first compound 0.006325 µM,0.358
same,relative viability,NCI-H1703; first compound 0.02 µM,0.651
same,relative viability,NCI-H1703; first compound 0.06325 µM,0.127
same,relative viability,NCI-H1703; first compound 0.2 µM,0.104
same,relative viability,NCI-H2023; first compound 0.002 µM,0.459
same,relative viability,NCI-H2023; first compound 0.006325 µM,0.418
same,relative viability,NCI-H2023; first compound 0.02 µM,0.219
same,relative viability,NCI-H2023; first compound 0.06325 µM,0.056
same,relative viability,NCI-H2023; first compound 0.2 µM,0.0536
same,relative viability,NCI-H2170; first compound 0.002 µM,0.659
same,relative viability,NCI-H2170; first compound 0.006325 µM,0.539
same,relative viability,NCI-H2170; first compound 0.06325 µM,0.468
same,relative viability,NCI-H2170; first compound 0.2 µM,0.16
same,relative viability,NCI-H520; first compound 0.002 µM,0.361
same,relative viability,NCI-H520; first compound 0.006325 µM,0.302
same,relative viability,NCI-H520; first compound 0.02 µM,0.227
same,relative viability,NCI-H520; first compound 0.06325 µM,0.139
same,relative viability,NCI-H520; first compound 0.2 µM,0.112
same,relative viability,NCI-H727; first compound 0.002 µM,0.674
same,relative viability,NCI-H727; first compound 0.006325 µM,0.767
same,relative viability,NCI-H727; first compound 0.02 µM,0.695
same,relative viability,NCI-H727; first compound 0.06325 µM,0.403
same,relative viability,NCI-H727; first compound 0.2 µM,0.271
CN1CCN(CCOc2cc(OC3CCOCC3)c3c(Nc4c(Cl)ccc5c4OCO5)ncnc3c2)CC1 [Saracatinib] + O=C(c1cc(Cc2n[nH]c(=O)c3ccccc23)ccc1F)N1CCN(C(=O)C2CC2)CC1 [Olaparib] (partner 8 µM),relative viability,A549; first compound 0.02 µM,0.338
same,relative viability,A549; first compound 0.2 µM,0.174
same,relative viability,A549; first compound 0.6325 µM,0.341
same,relative viability,A549; first compound 2 µM,0.305
same,relative viability,Calu-6; first compound 0.02 µM,0.53
same,relative viability,Calu-6; first compound 0.2 µM,0.51
same,relative viability,Calu-6; first compound 0.6325 µM,0.529
same,relative viability,Calu-6; first compound 2 µM,0.449
same,relative viability,EBC-1; first compound 0.02 µM,0.701
same,relative viability,EBC-1; first compound 0.2 µM,0.709
same,relative viability,EBC-1; first compound 0.6325 µM,0.729
same,relative viability,EBC-1; first compound 2 µM,0.734
same,relative viability,IA-LM; first compound 0.02 µM,0.856
same,relative viability,IA-LM; first compound 0.2 µM,0.884
same,relative viability,IA-LM; first compound 0.6325 µM,1.06
same,relative viability,IA-LM; first compound 2 µM,0.76
same,relative viability,NCI-H1299; first compound 0.02 µM,0.923
same,relative viability,NCI-H1299; first compound 0.2 µM,0.952
same,relative viability,NCI-H1299; first compound 0.6325 µM,1.12
same,relative viability,NCI-H1299; first compound 2 µM,0.92
same,relative viability,NCI-H1648; first compound 0.02 µM,0.882
same,relative viability,NCI-H1648; first compound 0.2 µM,0.678
same,relative viability,NCI-H1648; first compound 0.6325 µM,1.75
same,relative viability,NCI-H1648; first compound 2 µM,0.417
same,relative viability,NCI-H1703; first compound 0.02 µM,0.425
same,relative viability,NCI-H1703; first compound 0.2 µM,0.393
same,relative viability,NCI-H1703; first compound 0.6325 µM,0.172
same,relative viability,NCI-H1703; first compound 2 µM,0.158
same,relative viability,NCI-H2023; first compound 0.02 µM,0.503
same,relative viability,NCI-H2023; first compound 0.6325 µM,0.417
same,relative viability,NCI-H2023; first compound 2 µM,0.393
same,relative viability,NCI-H2170; first compound 0.02 µM,0.597
same,relative viability,NCI-H2170; first compound 0.2 µM,0.539
same,relative viability,NCI-H2170; first compound 0.6325 µM,0.558
same,relative viability,NCI-H2170; first compound 2 µM,0.524
same,relative viability,NCI-H520; first compound 0.02 µM,0.354
same,relative viability,NCI-H520; first compound 0.2 µM,0.327
same,relative viability,NCI-H520; first compound 0.6325 µM,0.289
same,relative viability,NCI-H520; first compound 2 µM,0.243
same,relative viability,NCI-H727; first compound 0.02 µM,0.687
same,relative viability,NCI-H727; first compound 0.2 µM,0.51
same,relative viability,NCI-H727; first compound 0.6325 µM,0.534
same,relative viability,NCI-H727; first compound 2 µM,0.578
Cc1csc(=NC2CCCCC2)n1/N=C/c1ccc(O)c(O)c1O [MIM1] + O=C(CCCCCCC(=O)Nc1ccccc1)NO [Vorinostat] (partner 1 µM),relative viability,IA-LM; first compound 0.2 µM,0.883
same,relative viability,IA-LM; first compound 0.6325 µM,0.935
same,relative viability,IA-LM; first compound 2 µM,0.93
same,relative viability,IA-LM; first compound 6.325 µM,0.57
same,relative viability,IA-LM; first compound 20 µM,0.159
same,relative viability,NCI-H1648; first compound 0.2 µM,0.431
same,relative viability,NCI-H1648; first compound 0.6325 µM,0.396
same,relative viability,NCI-H1648; first compound 2 µM,0.337
same,relative viability,NCI-H1648; first compound 6.325 µM,0.404
same,relative viability,NCI-H1648; first compound 20 µM,0.206
same,relative viability,NCI-H2023; first compound 0.2 µM,0.55
same,relative viability,NCI-H2023; first compound 0.6325 µM,0.58
same,relative viability,NCI-H2023; first compound 2 µM,0.391
same,relative viability,NCI-H2023; first compound 6.325 µM,0.194
same,relative viability,NCI-H2023; first compound 20 µM,0.0736
same,relative viability,NCI-H2170; first compound 0.2 µM,0.786
same,relative viability,NCI-H2170; first compound 0.6325 µM,0.696
same,relative viability,NCI-H2170; first compound 2 µM,0.748
same,relative viability,NCI-H2170; first compound 6.325 µM,0.479
same,relative viability,NCI-H2170; first compound 20 µM,0.138
same,relative viability,NCI-H520; first compound 0.2 µM,0.64
same,relative viability,NCI-H520; first compound 0.6325 µM,0.744
same,relative viability,NCI-H520; first compound 2 µM,0.833
same,relative viability,NCI-H520; first compound 6.325 µM,0.538
same,relative viability,NCI-H520; first compound 20 µM,0.308
same,relative viability,NCI-H727; first compound 0.2 µM,1.29
same,relative viability,NCI-H727; first compound 0.6325 µM,1.16
same,relative viability,NCI-H727; first compound 2 µM,1.15
same,relative viability,NCI-H727; first compound 6.325 µM,1.06
same,relative viability,NCI-H727; first compound 20 µM,0.607
